From PubChem BioAssay (NCI)
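Exposure lasted 48 hours, with cells grown in 96-well plates and compounds tested at five concentrations. TGI is the concentration that stops growth completely.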

Tests used:
Experiment in all cases: DTP human tumour cell line panel, 48 h
NCI-H23 lung = tested on: NCI-H23 lung
HT29 colon = tested on: HT29 colon
SK-OV-3 ovarian = tested on: SK-OV-3 ovarian
SN12C renal = tested on: SN12C renal
MDA-MB-435 = tested on: MDA-MB-435
SW-620 colon = tested on: SW-620 colon
HCT-116 colon = tested on: HCT-116 colon
IGROV1 ovarian = tested on: IGROV1 ovarian
OVCAR-4 ovarian = tested on: OVCAR-4 ovarian
SK-MEL-28 melanoma = tested on: SK-MEL-28 melanoma
SR leukemia = tested on: SR leukemia
HS 578T breast = tested on: HS 578T breast
HOP-62 NSCLC = tested on: HOP-62 NSCLC
HOP-92 NSCLC = tested on: HOP-92 NSCLC
KM12 colon = tested on: KM12 colon
M14 melanoma = tested on: M14 melanoma
NCI-H226 lung = tested on: NCI-H226 lung
UO-31 renal = tested on: UO-31 renal
NCI/ADR-RES ovarian = tested on: NCI/ADR-RES ovarian
U251 CNS = tested on: U251 CNS
SK-MEL-2 melanoma = tested on: SK-MEL-2 melanoma
ACHN renal = tested on: ACHN renal
BT-549 breast = tested on: BT-549 breast
OVCAR-3 ovarian = tested on: OVCAR-3 ovarian
SNB-75 CNS = tested on: SNB-75 CNS
DU-145 prostate = tested on: DU-145 prostate
SF-295 CNS = tested on: SF-295 CNS
SF-539 CNS = tested on: SF-539 CNS
HL-60(TB) leukemia = tested on: HL-60(TB) leukemia
SNB-19 CNS = tested on: SNB-19 CNS
PC-3 prostate = tested on: PC-3 prostate
OVCAR-5 ovarian = tested on: OVCAR-5 ovarian
MDA-N = tested on: MDA-N
K-562 leukemia = tested on: K-562 leukemia
TK-10 renal = tested on: TK-10 renal
MDA-MB-231 breast = tested on: MDA-MB-231 breast
UACC-257 melanoma = tested on: UACC-257 melanoma
RXF 393 renal = tested on: RXF 393 renal
COLO 205 colon = tested on: COLO 205 colon
786-0 renal = tested on: 786-0 renal
OVCAR-8 ovarian = tested on: OVCAR-8 ovarian
HCC-2998 colon = tested on: HCC-2998 colon
RPMI-8226 leukemia = tested on: RPMI-8226 leukemia
SF-268 CNS = tested on: SF-268 CNS
CAKI-1 renal = tested on: CAKI-1 renal
LOX IMVI melanoma = tested on: LOX IMVI melanoma
UACC-62 melanoma = tested on: UACC-62 melanoma
SK-MEL-5 melanoma = tested on: SK-MEL-5 melanoma
A498 renal = tested on: A498 renal
NCI-H522 lung = tested on: NCI-H522 lung
MALME-3M melanoma = tested on: MALME-3M melanoma
NCI-H460 lung = tested on: NCI-H460 lung
EKVX NSCLC = tested on: EKVX NSCLC
A549 NSCLC = tested on: A549 NSCLC
T-47D breast = tested on: T-47D breast
MCF7 breast = tested on: MCF7 breast
HCT-15 colon = tested on: HCT-15 colon

CCOC(=O)C(C(N)=O)c1nc2cc([N+](=O)[O-])ccc2nc1/C=C(\O)c1ccccc1 (configuration not stated)
TGI (NCI-H23 lung): 23.7 µM | TGI (HT29 colon): 45.3 µM | TGI (SK-OV-3 ovarian): 29 µM | TGI (SN12C renal): 64.4 µM | TGI (MDA-MB-435): 31.3 µM | TGI (SW-620 colon): 33.9 µM | TGI (HCT-116 colon): 32.7 µM | TGI (IGROV1 ovarian): 24.8 µM | TGI (OVCAR-4 ovarian): 34.7 µM | TGI (SK-MEL-28 melanoma): 86.9 µM | TGI (SR leukemia): 16.5 µM | TGI (HS 578T breast): 51.2 µM | TGI (HOP-62 NSCLC): 22.9 µM | TGI (HOP-92 NSCLC): 39.1 µM | TGI (KM12 colon): 26.5 µM | TGI (M14 melanoma): 34.3 µM | TGI (NCI-H226 lung): > 100 µM | TGI (UO-31 renal): 36.6 µM | TGI (NCI/ADR-RES ovarian): 34.8 µM | TGI (U251 CNS): 23.4 µM | TGI (SK-MEL-2 melanoma): 30.4 µM | TGI (ACHN renal): 30.7 µM | TGI (BT-549 breast): 49.9 µM | TGI (OVCAR-3 ovarian): 22 µM | TGI (SNB-75 CNS): 43.1 µM | TGI (DU-145 prostate): 31 µM | TGI (SF-295 CNS): 42.5 µM | TGI (SF-539 CNS): 30.2 µM | TGI (HL-60(TB) leukemia): 26 µM | TGI (SNB-19 CNS): 44.5 µM | TGI (PC-3 prostate): 30.2 µM | TGI (OVCAR-5 ovarian): 83.3 µM | TGI (MDA-N): 40.4 µM | TGI (K-562 leukemia): 13.9 µM | TGI (TK-10 renal): 22.9 µM | TGI (MDA-MB-231 breast): 27 µM | TGI (UACC-257 melanoma): 40.4 µM | TGI (RXF 393 renal): 39.3 µM | TGI (COLO 205 colon): 36.5 µM | TGI (786-0 renal): 25.5 µM | TGI (OVCAR-8 ovarian): 30 µM | TGI (HCC-2998 colon): 21.7 µM | TGI (RPMI-8226 leukemia): 27.1 µM | TGI (SF-268 CNS): 32.1 µM | TGI (CAKI-1 renal): 52 µM | TGI (LOX IMVI melanoma): 28.7 µM | TGI (UACC-62 melanoma): 34.9 µM | TGI (SK-MEL-5 melanoma): 30.4 µM | TGI (A498 renal): 33.2 µM | TGI (NCI-H522 lung): 29.3 µM | TGI (MALME-3M melanoma): 36.7 µM | TGI (NCI-H460 lung): 26.1 µM | TGI (EKVX NSCLC): 76.5 µM | TGI (A549 NSCLC): 32.8 µM | TGI (T-47D breast): 71.8 µM | TGI (MCF7 breast): 24.8 µM | TGI (HCT-15 colon): 28.4 µM
